# pIC50: −log10 of the molar value.
# Legend:
# [1] = target: ATP-binding cassette sub-family C member 2 (Homo sapiens, UniProt Q92887); experiment: Inhibition of human MRP2 expressed in dog MDCK2 cells; assay type: cell-based, MDCK-II; settings: for Activity: human, mdck-ii
# [2] = target: ATP-dependent translocase ABCB1 (Homo sapiens, UniProt P08183); experiment: Inhibition of P-gp in human A2780 cells; assay type: cell-based; settings: for Activity: human, a2780
# [3] = target: Multidrug resistance-associated protein 1 (Homo sapiens, UniProt P33527); experiment: Inhibition of human MRP1 in human 2008 cells assessed as increase in calcein-AM accumulation; assay type: cell-based
# Sequence of Multidrug resistance-associated protein 1 (P33527 whole entry): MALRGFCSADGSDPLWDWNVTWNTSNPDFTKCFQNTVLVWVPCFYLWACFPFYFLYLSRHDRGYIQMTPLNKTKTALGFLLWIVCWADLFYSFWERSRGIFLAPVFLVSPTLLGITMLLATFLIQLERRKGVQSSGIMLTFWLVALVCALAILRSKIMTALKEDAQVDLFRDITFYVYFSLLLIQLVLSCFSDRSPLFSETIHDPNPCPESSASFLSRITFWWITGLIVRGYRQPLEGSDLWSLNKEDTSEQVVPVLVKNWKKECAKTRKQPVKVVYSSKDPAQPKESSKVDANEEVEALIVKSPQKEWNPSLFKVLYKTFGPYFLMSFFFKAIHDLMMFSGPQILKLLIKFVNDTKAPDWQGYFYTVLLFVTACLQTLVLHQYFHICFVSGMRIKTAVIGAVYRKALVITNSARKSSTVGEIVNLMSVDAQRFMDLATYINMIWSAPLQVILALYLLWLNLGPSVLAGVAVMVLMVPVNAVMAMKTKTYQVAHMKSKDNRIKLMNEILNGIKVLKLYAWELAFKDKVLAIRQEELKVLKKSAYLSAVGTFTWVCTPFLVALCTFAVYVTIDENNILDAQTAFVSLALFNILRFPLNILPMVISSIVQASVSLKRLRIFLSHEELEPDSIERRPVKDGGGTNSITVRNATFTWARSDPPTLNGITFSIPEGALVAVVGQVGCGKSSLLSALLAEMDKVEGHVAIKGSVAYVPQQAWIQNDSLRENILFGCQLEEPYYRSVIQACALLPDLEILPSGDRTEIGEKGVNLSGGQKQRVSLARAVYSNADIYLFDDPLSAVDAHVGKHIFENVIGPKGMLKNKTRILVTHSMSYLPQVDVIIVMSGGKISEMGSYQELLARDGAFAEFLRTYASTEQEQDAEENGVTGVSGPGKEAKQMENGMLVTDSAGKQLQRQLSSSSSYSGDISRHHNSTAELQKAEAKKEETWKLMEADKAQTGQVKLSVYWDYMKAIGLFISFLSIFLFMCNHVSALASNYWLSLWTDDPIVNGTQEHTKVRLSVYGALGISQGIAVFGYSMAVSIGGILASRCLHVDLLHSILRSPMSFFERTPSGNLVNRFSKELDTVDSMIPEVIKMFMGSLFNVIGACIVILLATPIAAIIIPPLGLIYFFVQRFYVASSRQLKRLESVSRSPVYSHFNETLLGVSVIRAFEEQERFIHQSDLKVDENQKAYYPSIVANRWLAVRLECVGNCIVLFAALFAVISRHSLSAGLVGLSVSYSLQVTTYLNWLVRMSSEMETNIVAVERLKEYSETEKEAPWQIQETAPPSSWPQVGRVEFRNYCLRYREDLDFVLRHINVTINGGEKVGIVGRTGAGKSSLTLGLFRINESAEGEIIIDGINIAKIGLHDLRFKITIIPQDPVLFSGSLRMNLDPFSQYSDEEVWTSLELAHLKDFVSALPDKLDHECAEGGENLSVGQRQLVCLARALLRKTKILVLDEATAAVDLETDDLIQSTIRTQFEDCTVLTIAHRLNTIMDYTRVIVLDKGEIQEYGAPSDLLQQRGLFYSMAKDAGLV
# Sequence of ATP-dependent translocase ABCB1 (P08183 whole entry): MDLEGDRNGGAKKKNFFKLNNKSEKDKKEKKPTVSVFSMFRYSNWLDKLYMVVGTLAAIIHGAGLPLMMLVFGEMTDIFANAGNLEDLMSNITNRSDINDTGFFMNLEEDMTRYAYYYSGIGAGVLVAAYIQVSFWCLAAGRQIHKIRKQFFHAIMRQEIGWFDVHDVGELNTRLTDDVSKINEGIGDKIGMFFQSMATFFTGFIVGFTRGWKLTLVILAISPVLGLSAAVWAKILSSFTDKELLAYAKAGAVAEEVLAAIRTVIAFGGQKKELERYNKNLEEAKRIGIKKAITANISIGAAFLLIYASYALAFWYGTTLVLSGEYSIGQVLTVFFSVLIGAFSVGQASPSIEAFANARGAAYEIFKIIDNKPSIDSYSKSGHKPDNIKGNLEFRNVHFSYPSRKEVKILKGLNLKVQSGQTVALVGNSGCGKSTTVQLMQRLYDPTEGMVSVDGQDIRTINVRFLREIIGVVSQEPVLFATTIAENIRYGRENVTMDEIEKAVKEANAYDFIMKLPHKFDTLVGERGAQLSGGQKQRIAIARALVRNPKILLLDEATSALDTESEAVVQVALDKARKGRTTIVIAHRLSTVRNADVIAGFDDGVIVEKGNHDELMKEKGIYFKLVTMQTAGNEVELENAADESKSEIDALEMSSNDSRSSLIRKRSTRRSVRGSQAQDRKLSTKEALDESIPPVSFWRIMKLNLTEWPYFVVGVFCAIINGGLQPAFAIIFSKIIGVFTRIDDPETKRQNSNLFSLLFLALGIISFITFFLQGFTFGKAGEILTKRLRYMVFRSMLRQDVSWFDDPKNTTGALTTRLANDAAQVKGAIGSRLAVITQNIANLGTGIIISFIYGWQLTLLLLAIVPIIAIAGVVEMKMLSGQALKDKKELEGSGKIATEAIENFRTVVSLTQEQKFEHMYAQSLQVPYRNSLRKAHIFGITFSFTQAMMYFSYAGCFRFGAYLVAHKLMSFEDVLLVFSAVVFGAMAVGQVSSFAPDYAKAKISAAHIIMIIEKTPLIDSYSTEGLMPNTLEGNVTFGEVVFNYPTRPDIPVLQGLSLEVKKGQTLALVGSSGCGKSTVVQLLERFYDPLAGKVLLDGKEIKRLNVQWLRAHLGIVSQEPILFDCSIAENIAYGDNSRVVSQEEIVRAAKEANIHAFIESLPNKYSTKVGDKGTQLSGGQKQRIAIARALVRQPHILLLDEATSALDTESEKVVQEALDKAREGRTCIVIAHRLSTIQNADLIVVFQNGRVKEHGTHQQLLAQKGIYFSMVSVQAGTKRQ
# Sequence of ATP-binding cassette sub-family C member 2 (Q92887 whole entry): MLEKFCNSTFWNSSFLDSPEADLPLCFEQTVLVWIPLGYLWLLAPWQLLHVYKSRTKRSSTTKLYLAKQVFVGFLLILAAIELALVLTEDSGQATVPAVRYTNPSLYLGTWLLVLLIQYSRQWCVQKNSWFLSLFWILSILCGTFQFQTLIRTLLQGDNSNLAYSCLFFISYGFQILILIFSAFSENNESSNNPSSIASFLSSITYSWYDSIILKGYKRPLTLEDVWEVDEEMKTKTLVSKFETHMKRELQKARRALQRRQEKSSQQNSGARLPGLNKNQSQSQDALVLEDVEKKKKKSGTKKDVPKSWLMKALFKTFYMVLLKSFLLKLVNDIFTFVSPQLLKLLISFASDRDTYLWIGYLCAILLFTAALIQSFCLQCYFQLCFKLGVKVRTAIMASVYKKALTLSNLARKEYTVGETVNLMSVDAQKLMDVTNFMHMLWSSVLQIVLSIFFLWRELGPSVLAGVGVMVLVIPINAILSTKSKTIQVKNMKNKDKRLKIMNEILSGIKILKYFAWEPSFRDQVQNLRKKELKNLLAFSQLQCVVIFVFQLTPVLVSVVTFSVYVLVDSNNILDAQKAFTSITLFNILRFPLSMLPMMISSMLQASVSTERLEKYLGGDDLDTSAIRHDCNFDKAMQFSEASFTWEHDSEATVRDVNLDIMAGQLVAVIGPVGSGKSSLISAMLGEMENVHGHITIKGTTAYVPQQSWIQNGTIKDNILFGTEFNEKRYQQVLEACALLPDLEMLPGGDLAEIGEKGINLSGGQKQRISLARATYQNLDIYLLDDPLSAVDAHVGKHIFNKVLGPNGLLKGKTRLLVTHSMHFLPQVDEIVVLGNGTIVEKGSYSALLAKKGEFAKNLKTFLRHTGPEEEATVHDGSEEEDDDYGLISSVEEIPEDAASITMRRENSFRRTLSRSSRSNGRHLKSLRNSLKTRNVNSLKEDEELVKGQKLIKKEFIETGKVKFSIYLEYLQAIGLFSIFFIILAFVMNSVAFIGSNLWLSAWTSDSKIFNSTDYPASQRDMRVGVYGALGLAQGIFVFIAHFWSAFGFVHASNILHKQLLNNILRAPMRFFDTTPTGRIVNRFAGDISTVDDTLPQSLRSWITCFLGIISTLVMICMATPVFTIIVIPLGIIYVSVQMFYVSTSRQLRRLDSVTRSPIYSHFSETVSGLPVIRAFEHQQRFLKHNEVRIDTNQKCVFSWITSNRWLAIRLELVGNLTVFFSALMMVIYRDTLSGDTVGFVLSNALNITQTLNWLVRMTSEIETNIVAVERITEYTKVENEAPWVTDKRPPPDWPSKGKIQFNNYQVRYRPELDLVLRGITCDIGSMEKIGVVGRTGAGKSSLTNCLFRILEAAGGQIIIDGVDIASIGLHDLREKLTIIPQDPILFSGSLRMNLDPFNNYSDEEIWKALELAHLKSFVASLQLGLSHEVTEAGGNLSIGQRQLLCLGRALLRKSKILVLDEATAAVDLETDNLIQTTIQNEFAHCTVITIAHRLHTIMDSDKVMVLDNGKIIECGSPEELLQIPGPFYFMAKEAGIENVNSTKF
Activity [1],pIC50 [2],pIC50 [1],Activity [2],Activity [3],Compound
Not Active,< 3.70,,,,Nc1nc2sc3c(c2c(=O)s1)CCCC3
,,< 3.70,Not Active,,CCOC(=O)c1c(NC(=S)Nc2ccc(C(=O)O)cc2)sc2c1CCCC2
Not Active,,,Not Active,,O=C(Nc1nc2sc3c(c2c(=O)s1)CCCC3)c1ccccc1
,,4.67,Not Active,Active,O=C(O)c1ccc(Nc2nc3sc4c(c3c(=O)s2)CCCC4)cc1
,,4.68,Not Active,,CN(C)C(=O)CCSC(SCCC(=O)[O-])c1cccc(/C=C/c2ccc3ccc(Cl)cc3n2)c1.[Na+] (stereo not drawn)
,,3.63,Not Active,,COc1ccc2c(c1)c(CC(=O)O)c(C)n2C(=O)c1ccc(Cl)cc1 [INDOMETHACIN]

# From ChEMBL document CHEMBL1140042, “A 4-aminobenzoic acid derivative as novel lead for selective inhibitors of multidrug resistance-associated proteins” (Bioorg Med Chem Lett, 2008)
